The test system of experiment [1] is anesthetized dogs. Put plainly: Secondary testing (ED15). It is filed as in vivo, dog.
Experiment [2] deals with anesthetized dogs. In words: Infusion to anesthetized dogs, measuring renal blood flow and renal vascular resistance (procedure of U.S. Pat. No. 4,197,297). It is filed as in vivo, dog. From the text:
Specific results are included in the examples.

The mark [3] stands for this setting: infusion 30 μg/kg/min, anesthetized dog.
The mark [4] stands for this setting: infusion at 30 and 300 μg/kg/min.
The mark [5] stands for this setting: 300 μg/kg/min, anesthetized dog.
Where [6] appears, read: infusion 300 μg/kg/min, anesthetized dog.

On to `NCCc1ccc(O)c(O)c1` [Dopamine, reference compound], for which the ED15 in the experiment with anesthetized dogs [1] was 0.0035 mg/kg.

Take `CC(=O)O.COc1ccc(CC(C)(NC(=O)[C@@H]2CCCN2C(=O)CCCc2ccc(O)cc2)C(=O)N[C@@H](CCCNC(=N)N)C(=O)O)cc1OC` (stereo partly drawn) [Example 1, N-4-(4'-hydroxyphenyl)-butyryl-L-prolyl-D,L-α-methyl-3,4-dimethoxyphenylalanyl-L-arginine acetic acid salt]: in the experiment on anesthetized dogs [2] (setting [3]), the “decrease of renal vascular resistance” value is -21.3 and the “increase of renal blood flow” value is on record as “+18%”. Also, the ED15 with anesthetized dogs [1] was found to be 0.506 mg/kg.

Consider `COc1ccc(CC(C)(NC(=O)[C@@H]2CCCN2C(=O)CCCc2ccc(O)cc2)C(=O)NCCCN)cc1OC.Cl` (stereo partly drawn) [Example 2, N-4-(4'-hydroxyphenyl)-butyryl-L-prolyl-D,L-α-methyl-3,4-dimethoxyphenylalanine 3-aminopropylamide hydrochloride], for which, in the experiment on anesthetized dogs [2] (infusion 3 μg/kg/min), the “decrease of renal vascular resistance” value is on record as -11% and the “increase of renal blood flow” value is recorded as “+13.5%”. In the experiment on anesthetized dogs [2] (setting [4]), the “renal blood flow (in words)” value is “increased renal blood” and the “renal vascular resistance (in words)” value is listed as “decreased renal vascular resistance”.

Turning to `CC(=O)O.CC(Cc1ccc(O)cc1)(NC(=O)[C@@H]1CCCN1C(=O)CCCc1ccc(O)cc1)C(=O)N[C@@H](CCCNC(=N)N)C(=O)O` (stereo partly drawn) [Example 3, N-4-(4'-hydroxyphenyl)-butyryl-L-prolyl-D,L-α-methyltyrosyl-L-arginine acetic acid salt], the “decrease of renal vascular resistance” value is -12 in the experiment on anesthetized dogs [2] (3 μg/kg/min, anesthetized dog); -11 with anesthetized dogs [2] (setting [5]); -9 in the experiment with anesthetized dogs [2] (setting [3]). Also, the “increase of renal blood flow” value was “+8.0” in the experiment on anesthetized dogs [2] (3 μg/kg/min, anesthetized dog); “+12.0” with anesthetized dogs [2] (30 μg/kg/min, anesthetized dog); “+11.0” with anesthetized dogs [2] (setting [5]). In addition, the “increase of renal blood flow after a cumulative dose” value with anesthetized dogs [2] (cumulative dose at 3, 30 and 300 μg/kg/min) turned out to be 28%.

Regarding `CC(Cc1ccc(O)cc1)(NC(=O)[C@@H]1CCCN1C(=O)CCCc1ccc(O)cc1)C(=O)NCCCN.Cl` (stereo partly drawn) [Example 4, N-4-(4'-hydroxyphenylbutyryl)-L-prolyl-D,L-α-methyltyrosine ω-aminopropylamide, hydrochloride], in the experiment on anesthetized dogs [2] (3 μg/kg/min, anesthetized dog), the “decrease of renal vascular resistance” value is given as -9.5 and the “increase of renal blood flow” value is recorded as “+8.5”.

On to `CC(Cc1ccccc1)(NC(=O)[C@@H]1CCCN1C(=O)CCCc1ccc(O)cc1)C(=O)NCCCN.Cl` (stereo partly drawn) [Example 5, N-4-(4'-hydroxyphenylbutyryl)-L-prolyl-D,L-α-methylphenylalanine ω-aminopropylamide, hydrochloride], for which, in the experiment on anesthetized dogs [2] (infused in anesthetized dogs), the cumulative drug effect result is “demonstrated a cumulative drug effect”. Also, in the experiment with anesthetized dogs [2] (setting [6]), the “increase of renal blood flow” value is “+11.7%”. Also, the “decrease of vascular renal resistance” value in the experiment on anesthetized dogs [2] (infusion 300 μg/kg/min, anesthetized dogs) was found to be 11.3%.

In the case of `CC(=O)O.C[C@@](Cc1ccccc1)(NC(=O)[C@@H]1CCCN1C(=O)CCCc1ccc(O)cc1)C(=O)N[C@@H](CCCNC(=N)N)C(=O)O.O` [Example 6, N-4-(4'-hydroxyphenyl)-butyryl-L-prolyl-D,L-α-methylphenylalanyl-L-arginine 1.5HOAc.1H2 O], the “increase of renal blood flow” value is recorded as “+12%” in the experiment on anesthetized dogs [2] (setting [3]) and “+11%” in the experiment with anesthetized dogs [2] (setting [6]).
